Laboratory results reported in PubChem BioAssay (NCI).
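1) Cells in 96-well plates. 2) Compound, 48 h, 5 concentrations. 3) Linear interpolation between surrounding doses. 4) Unreached endpoint = highest concentration. TGI denotes the concentration required for complete inhibition of growth.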

Experiments:
Test in all cases: NCI-60 cell line screen, 48 h
[1] = test system: A498 renal
[2] = test system: A549 NSCLC
[3] = test system: ACHN renal
[4] = test system: HOP-92 NSCLC
[5] = test system: KM12 colon
[6] = test system: M14 melanoma
[7] = test system: MCF7 breast
[8] = test system: MDA-MB-435
[9] = test system: MDA-N
[10] = test system: MOLT-4 leukemia
[11] = test system: PC-3 prostate
[12] = test system: SW-620 colon
[13] = test system: U251 CNS
[14] = test system: UACC-62 melanoma
[15] = test system: NCI-H226 lung
[16] = test system: SNB-75 CNS
[17] = test system: TK-10 renal
[18] = test system: MDA-MB-231 breast
[19] = test system: T-47D breast
[20] = test system: BT-549 breast

Compound	TGI [1] [µM]	TGI [2] [µM]	TGI [3] [µM]	TGI [4] [µM]	TGI [5] [µM]	TGI [6] [µM]	TGI [7] [µM]	TGI [8] [µM]	TGI [9] [µM]	TGI [10] [µM]	TGI [11] [µM]	TGI [12] [µM]	TGI [13] [µM]	TGI [14] [µM]	TGI [15] [µM]	TGI [16] [µM]	TGI [17] [µM]	TGI [18] [µM]	TGI [19] [µM]	TGI [20] [µM]
Cc1cccc(Nc2cn(CCOc3ccccc3)c(=O)n(CCOc3ccccc3)c2=O)c1	> 100	> 100	> 100	> 100	> 100	> 100	> 100	> 100	> 100	> 100	> 100	> 100	> 100	> 100	–	–	–	–	–	–
C=CCc1ccc(O)c(-c2cc(C3Oc4c(-c5cc(CC=C)ccc5O)cc(O)cc4[C@@H]3CO)ccc2O)c1 (stereo partly specified)	61.5	> 100	> 100	64.9	85.7	> 100	–	–	–	–	–	31.1	68.7	89.1	> 100	> 100	> 100	–	–	–
COC(=O)[C@@]12OC[C@]34C([C@@H](O)C1O)[C@@]1(C)CC(=O)C(O)=C(C)C1C[C@H]3OC(=O)[C@H](OC(=O)CC(C)C(F)(F)F)[C@H]42 (stereo partly specified)	0.121	0.492	0.301	0.131	0.563	0.124	–	–	–	0.312	–	1.37	0.214	0.0629	0.0338	0.187	1.29	–	–	–
CCc1cc2c(cc1CCCC(=O)O)CC1(Cc3ccc(C(=O)O)cc3C1)C2 (stereo unspecified)	> 100	> 100	> 100	> 100	> 100	> 100	> 100	> 100	> 100	> 100	> 100	> 100	> 100	–	> 100	> 100	> 100	> 100	> 100	–
C=C(Br)CN(CC(=C)Br)C(C)=O	> 100	> 100	> 100	–	> 100	> 100	> 100	> 100	> 100	> 100	> 100	> 100	> 100	> 100	> 100	> 100	> 100	> 100	> 100	–
[O-]c1on[n+]2c1c(Nc1ccc(Cl)cc1)nc1ccccc12	> 100	> 100	> 100	> 100	> 100	> 100	–	–	–	> 100	–	> 100	> 100	> 100	–	> 100	> 100	–	–	–
CCOC(=O)C1(Cc2c[nH]c3ccccc23)C(O)CCCN1C(C)=O (stereo unspecified)	> 100	> 100	> 100	> 100	> 100	> 100	> 100	> 100	–	> 100	> 100	> 100	> 100	> 100	> 100	> 100	> 100	> 100	> 100	> 100
